# Reference: patent US8088934B2, “Composition and method for stabilizing the same” (SUCAMPO AG, priority 1999, dated 2012)
# Assays:
# Assay type in all cases: physicochemical
# [1] = Stability of the compounds stored solely (crystal, without solvent) at 40° C., content by HPLC; conditions: crystal (no solvent), hard glass container
# Method: (§1) The above-described compounds 1 and 2 were dissolved in the medium chain fatty acid triglyceride (MCT)^31 at the amount shown in the table 1 below respectively. Each of the solutions was placed in a container made of hard glass and stored at 40° C. The time-course of the content of the compound 1 and 2 in the solutions were determined by HPLC method. The medium chain fatty acid triglyceride used herein was a mixture of caprylic acid triglyceride and capric acid triglyceride (85:15). At the same time, each of the compounds 1 and 2 was placed solely (without being dissolved in the solvent) in the container as above and stored at 40° C. to provide control study.
# (1) Under the absence of the solvent, the content of the compound was determined as follows (HPLC method).
# The stored compounds 1 and 2, and standard compounds 1 and 2 were weighed precisely around 0.025 g each, and exactly 5 ml aliquots of an internal standard solution were added to the respective weighed compounds. Then the test and standard preparations were obtained by adding acetonitrile (liquid chromatograph grade) to give the precise total amount of 10 ml each. Each 10 μl of the test and standard preparations was loaded on liquid chromatograph and determined the content of the compound by internal standard method with one point calibration curve.
# [formula] Ws: The amount of the compound in the standard preparation (mg) WT: The amount of the compound 1 or 2 in the test preparation QS: Peak area ratio of the compound in the standard preparation to the internal standard. QT: Peak area ratio of the compound in the test preparation to the internal standard. Measurement Conditions Detector: Ultraviolet absorption spectrophotometer (wavelength: 294 nm) Column: A stainless tube having about 5 mm of internal diameter and about 25 cm of length, packed with 5 μm octadecylsilyl silica gel for liquid chromatograph Column temperature: Stable at around 35° C. Mobile phase: Mixed solution of acetonitrile (liquid chromatograph grade)/aqueous sodium acetate (0.01 mol/l)/glacial acetic acid (800:200:1) (2) Under the presence of the solvent, the content of the compound was determined as follows (HPLC method).
# [2] = Stability of the compounds dissolved in medium chain fatty acid triglyceride (MCT) stored at 40° C., content by HPLC; conditions: for stability on admixing with the glyceride (conclusion from Table 1): MCT versus crystal; for content of the compound stored at 40° C., 14 days / content of the compound stored at 40° C., initial: in MCT (compound 1: 0.36 mg/g; compound 2: 0.12 mg/g)
# Method: as §1
# (§2) Based on the value expressed in the table 1, an amount of the solution corresponding to 36 μg of the compound 1 or 2 was weighted precisely. Precisely 1.0 ml of an internal standard solution was added, and then ethyl acetate (liquid chromatograph grade) was added to give the total amount of 10 ml each. Each 0.1 ml of the solution was vacuum concentrated to dryness to give the test preparation.
# (§3) Each 18 mg of the respective standard compounds was weighted precisely and admixed with ethyl acetate (liquid chromatograph grade) to give the total amount of exactly 50 ml each. One (1.0) ml of the solution and 10.0 ml of the internal standard solution were measured precisely and admixed with ethyl acetate (liquid chromatograph grade) to give the total amount of 100 ml each. Each 0.1 ml of the solution was vacuum concentrated to dryness to give the standard preparation.
# (§4) To the test and standard preparations, 0.1 ml of fluorescent labeling reagent and 0.85 ml of fluorescent labeling catalyst were added respectively, and the mixture was stirred and reacted at room temperature more than 30 minutes. 0.05 ml aliquots of acetonitrile (liquid chromatograph grade) containing 2% acetic acid were added to the reaction mixtures respectively, stirred and then stand for more than 30 minutes to provide test and standard solutions.
# (§5) Each 10 μl of the test and standard solutions was loaded on liquid chromatograph and determined the content of the respective compounds by internal standard method with one point calibration curve.
# (§6) [formula] WS: The amount of the compound in the standard preparation (mg) QS: Peak area ratio of the compound in the standard preparation to the internal standard QT: Peak area ratio of the compound in the test preparation to the internal standard. Measurement Condition Detector: fluorescent spectrometer (excitation wavelength 259 nm, fluorescent wavelength 394 nm) Column: A stainless tube having about 5 mm of internal diameter and about 25 cm of length, packed with 5 μm octadecylsilyl silica gel for liquid chromatograph Column temperature: Stable at around 35° C. Mobile phase: Mixed solution of acetonitrile (liquid chromatograph grade)/methanol (liquid chromatograph grade)/aqueous ammonium acetate (0.05 mol/l) (4:11:5) The results are shown in Table 1 below.
# [3] = Stability of compound 1 stored at 40° C. for 4 weeks in various solvents and containers, content by HPLC
# Method: as §2, §3, §4, §5, §6
# Each of the solutions was placed in a container made of low-density polyethylene (LDPE), hard glass or stainless steel and stored at 40° C. The content of the compound 1 in the solutions after four weeks were determined by HPLC method according to the above described (2) of Example 1 except for using composition shown in table 2 below.
# [4] = Stability of compound 1 stored at 40° C. for 4 weeks in various ratio of MCT to Mineral oil, content by HPLC
# Method: as §2, §3, §4, §5, §6
# Each of the solutions was placed in a container made of LDPE and stored at 40° C. The content of the compound in the solutions after four weeks were determined by HPLC method according to the above described (2) of Example 1 except for using composition shown in table 3 below.
smiles,measurement,setting,value
"CCCCC(F)(F)[C@@]1(O)CC[C@H]2[C@@H](CC(=O)[C@@H]2CCCCCCC(=O)O)O1 [compound 1, 7-[(1R,3R,6R,7R)-3-(1,1-difluoropentyl)-3-hydroxy-2-oxabicyclo[4.3.0]nonane-8-one-7-yl]heptanoic acid]","content of the compound stored at 40° C., 7 days",[1]; 7 days,97.2%
same,"content of the compound stored at 40° C., 14 days",[1],94.1%
same,"content of the compound stored at 40° C., 28 days",[1],87.4%
same,"content of the compound stored at 40° C., initial",[1],100%
same,stability on admixing with the glyceride (conclusion from Table 1),[2],significantly improved
same,"content of the compound stored at 40° C., 38 days","[2]; in MCT (compound 1: 0.36 mg/g), hard glass, 38 days",102.1%
same,"content of the compound stored at 40° C., 90 days","[2]; in MCT (compound 1: 0.36 mg/g), hard glass, 90 days",100.9%
same,"content of the compound stored at 40° C., 14 days",[2]; hard glass,101.4%
same,"content of the compound stored at 40° C., initial",[2]; hard glass,100%
same,% to the initial 4 weeks after,"[3]; 10 μg/mL, MCT, LDPE container",100.8%
same,% to the initial 4 weeks after,"[3]; 10 μg/mL, Saline, Hard glass container",18.0%
same,% to the initial 4 weeks after,"[3]; 20 μg/mL, Caster oil, LDPE container",102.9%
same,% to the initial 4 weeks after,"[3]; 20 μg/mL, Corn oil, LDPE container",99.6%
same,% to the initial 4 weeks after,"[3]; 20 μg/mL, Diluted water, Hard glass container",39.6%
same,% to the initial 4 weeks after,"[3]; 20 μg/mL, MCT, Hard glass container",99.5%
same,% to the initial 4 weeks after,"[3]; 20 μg/mL, MCT, Stainless steel container",99.5%
same,% to the initial 4 weeks after,"[3]; 20 μg/mL, Olive oil, LDPE container",99.0%
same,% to the initial 4 weeks after,"[3]; 20 μg/mL, Sesame oil, LDPE container",100.1%
same,stability on admixing with the glyceride (conclusion from Table 2),[3]; glycerides versus water or saline,significantly improved
same,% to the initial 4 weeks after,"[4]; 0.5 μg/mL, MCT/MO (V/V) 1/99, LDPE",91.0%
same,% to the initial 4 weeks after,"[4]; 0.5 μg/mL, MCT/MO (V/V) 2/98, LDPE",96.6%
same,% to the initial 4 weeks after,"[4]; 0.5 μg/mL, MCT/MO (V/V) 5/95, LDPE",98.1%
same,% to the initial 4 weeks after,"[4]; 0.5 μg/mL, MCT/MO (V/V) 10/90, LDPE",99.0%
same,% to the initial 4 weeks after,"[4]; 0.7 μg/mL, MCT/MO (V/V) 0/100, LDPE",88.3%
same,% to the initial 4 weeks after,"[4]; 10 μg/mL, MCT/MO (V/V) 50/50, LDPE",101.9%
same,stability on admixing with the mixture of glyceride and other oil solvent (conclusion from Table 3),[4]; MCT/Mineral oil mixtures,significantly improved
"CC[C@H](C)CC(F)(F)[C@@]1(O)CC[C@H]2[C@@H](CC(=O)[C@@H]2CCCCCCC(=O)O)O1 [compound 2, 7-[(1R,6R,7R)-3-[(3S)-1,1-difluoro-3-methylpentyl]-3-hydroxy-2-oxabicyclo[4.3.0]nonane-8-one-7-yl]heptanoic acid]","content of the compound stored at 40° C., 6 days",[1]; 6 days,84.5%
same,"content of the compound stored at 40° C., 14 days",[1],75.0%
same,"content of the compound stored at 40° C., 28 days",[1],53.4%
same,"content of the compound stored at 40° C., initial",[1],100%
same,stability on admixing with the glyceride (conclusion from Table 1),[2],significantly improved
same,"content of the compound stored at 40° C., 14 days",[2]; hard glass,99.6%
same,"content of the compound stored at 40° C., initial",[2]; hard glass,100%
same,"content of the compound stored at 40° C., 28 days","[2]; in MCT (compound 2: 0.12 mg/g), hard glass, 28 days",98.9%
same,"content of the compound stored at 40° C., 191 days","[2]; in MCT (compound 2: 0.12 mg/g), hard glass, 191 days",99.6%
